In article PMC8421423, “Cellular model system to dissect the isoform-selectivity of Akt inhibitors” (Nature Communications, 2021):
“And” between values parts separate entries of the source, which are not always exact repeats. Equal values may be shown once. Read-outs that look alike come from different tables or passages of the source.

How the values were obtained:
[1] = system: pAkt1; test: Western blot analysis, PANC1 cells; format: cell-based, human; conditions: PANC1, 24-h treatment
[2] = molecular target: Akt1 (Homo sapiens, UniProt P31749); test: PhosphoSens continuous fluorometric kinetic enzyme assay
Chain of Akt1 (P31749 whole entry): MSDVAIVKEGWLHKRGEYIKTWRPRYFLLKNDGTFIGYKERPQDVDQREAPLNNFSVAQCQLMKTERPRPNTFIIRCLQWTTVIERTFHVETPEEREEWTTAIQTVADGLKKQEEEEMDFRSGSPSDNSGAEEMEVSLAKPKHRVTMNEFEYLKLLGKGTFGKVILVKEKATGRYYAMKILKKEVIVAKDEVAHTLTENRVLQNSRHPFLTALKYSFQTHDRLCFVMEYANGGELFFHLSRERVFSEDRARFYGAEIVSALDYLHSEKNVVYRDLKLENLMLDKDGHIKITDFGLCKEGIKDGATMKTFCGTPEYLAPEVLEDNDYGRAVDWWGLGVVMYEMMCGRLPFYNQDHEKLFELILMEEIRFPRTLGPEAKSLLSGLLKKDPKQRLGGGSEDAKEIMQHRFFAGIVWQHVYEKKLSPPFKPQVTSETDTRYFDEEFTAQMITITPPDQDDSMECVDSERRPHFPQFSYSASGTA
Description: (§2) By addition of either 8 nM Akt1, 2 nM Akt2, or 5 nM Akt3 (final concentrations) the reactions were initiated. […] Afterwards the kobs-values were plotted versus the inhibitor concentrations [I] and then fit to the following hyperbolic Eq.

[3] = molecular target: T1, Akt3 (Homo sapiens, UniProt Q9Y243, E113A/E114A/E115A); test: ESI-MS/MS of tryptic digest (modified cysteine residues); format: binding; conditions: 5-fold molar excess of inhibitor
T1 construct: AKT3(2–443, E114/115/116A); His6 with TEV protease recognition site (N, cleaved yes); made in house; host or cells: Spodoptera frugiperda (Sf9)
T1 sequence (Q9Y243 2-443 E113A/E114A/E115A): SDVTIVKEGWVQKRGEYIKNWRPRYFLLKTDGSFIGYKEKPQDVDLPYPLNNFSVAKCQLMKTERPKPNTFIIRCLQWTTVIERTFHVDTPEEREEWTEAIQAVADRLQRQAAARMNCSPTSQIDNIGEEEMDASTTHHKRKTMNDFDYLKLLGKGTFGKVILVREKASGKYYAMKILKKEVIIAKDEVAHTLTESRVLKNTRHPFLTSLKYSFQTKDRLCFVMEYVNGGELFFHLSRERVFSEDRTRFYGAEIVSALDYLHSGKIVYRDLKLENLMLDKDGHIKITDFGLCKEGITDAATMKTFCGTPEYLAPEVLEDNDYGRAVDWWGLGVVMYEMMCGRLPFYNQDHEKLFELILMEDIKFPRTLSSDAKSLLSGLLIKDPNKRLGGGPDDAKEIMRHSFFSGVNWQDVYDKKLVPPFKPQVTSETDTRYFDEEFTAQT
Description: (§1) ESI-MS/MS samples were prepared as stated above followed by steps of reduction, alkylation, and tryptic digest. The digested samples were stage tip-purified using C18 tips and according to a protocol described elsewhere. Subsequently, samples were thawed, dissolved in 20 μL of 0.1% TFA in water, sonicated at room temperature for 15 min, and centrifuged at 15,000×g for 1 min shortly before analysis. In all, 3 μL of sample were loaded onto a pre-column cartridge and desalted for 5 min using 0.1% TFA in water as eluent at a flow rate of 30 μL/min. The samples were back-flushed from the pre-column to the nano-HPLC column during the whole analysis. Elution was performed using a gradient starting at 5% B with a final composition of 30% B after 35 min (flow rate 300 nL/min) using 0.1% formic acid in water as eluent A and 0.1% formic acid in acetonitrile as eluent B and a column temperature of 40 °C. […] During the complete gradient cycle, a typical TOP10 shot-gun proteomics method for the MS and MS/MS analysis was used. For full scan MS experiments a mass range of m/z 300–1650 was scanned with a resolution of 70000. MS/MS experiments were followed by up to 10 high energy collision dissociation (HCD) MS/MS scans with a resolution of 17,500 of the most intense at least doubly charged ions. Data evaluation was performed using MaxQuant[50]. Spectra were searched against the specific Akt sequence and a contamination database using a false discovery rate of 1% on peptide and protein level using a decoy database for determination of the false discovery rate. For database search oxidation of methionine and N-terminal acetylation of proteins, carbamidomethylation of cysteines, and artificial modification of cysteines were defined as variable modifications.

[4] = molecular target: T2, Akt2 (Homo sapiens, UniProt P31751); test: PhosphoSens continuous fluorometric kinetic enzyme assay
Target sequence in this assay (P31751 whole entry): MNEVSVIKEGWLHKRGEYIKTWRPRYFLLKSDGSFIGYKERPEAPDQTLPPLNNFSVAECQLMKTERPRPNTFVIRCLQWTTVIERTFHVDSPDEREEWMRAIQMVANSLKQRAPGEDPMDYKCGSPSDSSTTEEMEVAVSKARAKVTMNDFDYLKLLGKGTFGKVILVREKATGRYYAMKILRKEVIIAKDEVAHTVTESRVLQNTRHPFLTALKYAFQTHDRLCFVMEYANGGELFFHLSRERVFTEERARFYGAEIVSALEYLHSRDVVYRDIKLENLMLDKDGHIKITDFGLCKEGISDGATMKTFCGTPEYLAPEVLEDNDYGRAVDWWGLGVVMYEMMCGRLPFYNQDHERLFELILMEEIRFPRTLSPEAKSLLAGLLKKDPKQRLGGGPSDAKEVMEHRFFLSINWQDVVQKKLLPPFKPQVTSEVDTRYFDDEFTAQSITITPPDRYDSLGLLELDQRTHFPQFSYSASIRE
Description: as §2

[5] = molecular target: Akt3 (Homo sapiens, UniProt Q9Y243); test: as above
Chain of Akt3 (Homo sapiens, UniProt Q9Y243) (Q9Y243 whole entry): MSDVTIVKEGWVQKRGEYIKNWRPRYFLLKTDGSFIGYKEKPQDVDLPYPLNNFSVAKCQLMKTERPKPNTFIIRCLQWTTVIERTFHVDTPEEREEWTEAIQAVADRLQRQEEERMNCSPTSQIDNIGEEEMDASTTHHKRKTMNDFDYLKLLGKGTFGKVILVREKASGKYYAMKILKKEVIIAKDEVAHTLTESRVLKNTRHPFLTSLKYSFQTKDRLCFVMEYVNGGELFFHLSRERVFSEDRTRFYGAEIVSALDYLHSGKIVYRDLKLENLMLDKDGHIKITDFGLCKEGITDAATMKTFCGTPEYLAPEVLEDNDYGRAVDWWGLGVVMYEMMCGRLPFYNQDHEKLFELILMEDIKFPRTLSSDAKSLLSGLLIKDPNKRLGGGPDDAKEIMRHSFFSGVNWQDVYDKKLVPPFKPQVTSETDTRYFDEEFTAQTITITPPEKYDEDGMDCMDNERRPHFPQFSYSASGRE
Description: as §2

[6] = molecular target: T2, Akt2; test: ESI-MS/MS of tryptic digest (modified cysteine residues); format: binding; set-up: AKT2(2–447); His6 with TEV protease recognition site (N, cleaved yes); made in house; host or cells: Spodoptera frugiperda (Sf9); conditions: 5-fold molar excess of inhibitor
Description: as §1, with “Spectra were searched against the specific Akt sequence and a contamination database using a false discovery rate of 1% on peptide and protein level using a decoy database for determination of the false discovery rate. For database search oxidation of methionine and N-terminal acetylation of proteins, carbamidomethylation of cysteines, and artificial modification of cysteines were defined as variable modifications.” left out
Target sequence in this assay (P31751 2-447): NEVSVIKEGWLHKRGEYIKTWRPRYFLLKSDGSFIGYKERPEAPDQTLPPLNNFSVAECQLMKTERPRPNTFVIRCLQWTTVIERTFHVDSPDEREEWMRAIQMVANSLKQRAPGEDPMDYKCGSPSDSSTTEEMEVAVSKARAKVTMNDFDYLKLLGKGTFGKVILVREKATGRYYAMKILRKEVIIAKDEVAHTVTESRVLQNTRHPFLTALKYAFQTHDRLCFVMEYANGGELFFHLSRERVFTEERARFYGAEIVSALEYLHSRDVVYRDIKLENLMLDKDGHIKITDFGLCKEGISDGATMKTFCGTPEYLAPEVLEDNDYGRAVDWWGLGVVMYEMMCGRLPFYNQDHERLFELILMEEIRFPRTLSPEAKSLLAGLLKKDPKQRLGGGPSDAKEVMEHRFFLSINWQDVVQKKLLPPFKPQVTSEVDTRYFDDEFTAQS

[7] = Ki Akt2, Mean, mean of replicates
[8] = Ki Akt2, individual determinations, single replicates
[9] = read-out: kinact Akt2, individual determinations, single replicates
[10] = Ki Akt3, Mean, mean of replicates
[11] = Ki Akt3, individual determinations, single replicates
[12] = read-out: kinact /Ki Akt3, individual determinations, single replicates
[13] = read-out: kinact Akt3, Mean, mean of replicates
[14] = read-out: kinact Akt3, individual determinations, single replicates

Structure (SMILES)	pAkt1 level (immunoblot) [1]	Ki ([4]; Ki Akt2) [nM]	Ki [4, 7] [nM]	Ki [4, 8]	kinact/KI ([4]; read-out: kinact /Ki Akt2) [M⁻¹ s⁻¹]	kinact ([4]; read-out: kinact Akt2) [s⁻¹]	kinact [4, 9] [s⁻¹]	kinact Akt2, individual determinations ([4]; single replicates)	Ki ([5]; Ki Akt3) [nM]	Ki [5, 10] [nM]	Ki [5, 11]	kinact/KI ([5]; read-out: kinact /Ki Akt3) [M⁻¹ s⁻¹]	kinact/KI [5, 12] [M⁻¹ s⁻¹]	kinact ([5]; read-out: kinact Akt3) [s⁻¹]	kinact [5, 13] [s⁻¹]	kinact [5, 14] [s⁻¹]	kinact Akt3, individual determinations ([5]; single replicates)	also measured
C=CC(=O)Nc1ccc2[nH]c(=O)n(C3CCN(Cc4ccc(-c5ncccc5-c5ccccc5)cc4)CC3)c2c1 [compound 1]	downregulation of pAkt1 and pAkt2																	Ki ([2]; Ki Akt1): 6 ± 2 nM; Ki ([2]; Ki Akt1, Mean, mean of replicates): 5.77 nM; Ki ([2]; Ki Akt1, individual determinations, single replicates): 3.95 nM and 5.28 nM and 8.08 nM; kinact/KI ([2]; read-out: kinact /Ki Akt1): 38000 ± 10000 M⁻¹ s⁻¹; kinact/KI ([2]; read-out: kinact /Ki Akt1, Mean, mean of replicates): 36000 M⁻¹ s⁻¹; kinact/KI ([2]; read-out: kinact /Ki Akt1, individual determinations, single replicates): 36000 M⁻¹ s⁻¹; kinact ([2]; read-out: kinact Akt1): 0.0002 s⁻¹; kinact ([2]; read-out: kinact Akt1, individual determinations, single replicates): 0.00015 s⁻¹; kinact Akt1, individual determinations ([2]; single replicates): 0.015 min⁻¹ and 0.011 min⁻¹
C=CC(=O)Nc1ccc2[nH]c(=O)n(C3CCN(Cc4ccc(-c5ncc(Cc6ccc(N)nc6)cc5-c5ccccc5)cc4)CC3)c2c1 [compound 20]		95 ± 14	94.4	98.6 nM and 101 nM and 71.2 nM and 107 nM	4000 ± 1000	0.00035	0.000383	0.025 min⁻¹ and 0.022 min⁻¹ and 0.015 min⁻¹	53 ± 4	70.1	71.5 nM and 73.4 nM and 65.4 nM	10000 ± 3000	8000	0.000733	0.000767	0.00055	0.061 min⁻¹	modified cysteine residues in Akt3 (MS/MS) [3]: Cys293; kinact/KI ([4]; read-out: kinact /Ki Akt2, Mean, mean of replicates): 4000 M⁻¹ s⁻¹; kobs (mean) ([5]; Akt3 + 20, concentration 2.5 nM): 5.68e-05 s⁻¹; kobs (mean) ([5]; Akt3 + 20, concentration 4.9 nM): 4.71e-05 s⁻¹; kobs (mean) ([5]; Akt3 + 20, concentration 9.9 nM): 8.01e-05 s⁻¹; kobs (mean) ([5]; Akt3 + 20, concentration 39.5 nM): 0.00023 s⁻¹; kobs (mean) ([5]; Akt3 + 20, concentration 123.8 nM): 0.000418 s⁻¹; kobs (mean) ([5]; Akt3 + 20, concentration 247.5 nM): 0.000431 s⁻¹; kobs (mean) ([5]; Akt3 + 20, concentration 371.3 nM): 0.000653 s⁻¹; kinact/KI ([5]; read-out: kinact /Ki Akt3, Mean, mean of replicates): 11000 M⁻¹ s⁻¹
C=CC(=O)Nc1ccc2[nH]c(=O)n(C3CCN(Cc4ccc(-c5ncc(Cc6cn[nH]c6)cc5-c5ccccc5)cc4)CC3)c2c1 [compound 14]	pAkt1 signal remained stable	11 ± 2	10.4	13.2 nM and 8 nM and 9.9 nM	25000 ± 6000	0.000267	0.0002	0.015 min⁻¹ and 0.017 min⁻¹	29 ± 4	29.3	35.5 nM and 27.7 nM and 30 nM and 24.2 nM	13000 ± 2000	11000	0.000367	0.000367	0.0004	0.023 min⁻¹ and 0.019 min⁻¹ and 0.022 min⁻¹	kinact/KI ([4]; read-out: kinact /Ki Akt2, individual determinations, single replicates): 15000 M⁻¹ s⁻¹; kinact ([4]; read-out: kinact Akt2, Mean, mean of replicates): 0.00025 s⁻¹; modified cysteine residues in Akt2 (MS/MS) [6]: Cys297, Cys311, and Cys124
